Measured values reported in patent publication US4703039A, “Method of producing biologically active molecules having extended life time” (New England Deaconess Hospital Corporation, priority 1985, dated 1987).
Ends that are not written are not given here.

Key:
[1] = test system: ADP-modified human platelet receptor site for fibrinogen; experiment: Inhibition of 125I-fibrinogen binding to ADP-treated human platelets; conditions: 10^8 human platelets/0.55 ml treated with 5 mM of ADP, FIG. 8
Description: FIG. 3 is a graph showing that the inhibitory effect of the same conjugate is concentration dependent. In this experiment, human platelets were treated with ADP and a variety of concentrations of the conjugate were added to affect inhibition of ^125 I-fibrinogen binding to the platelets. As the concentration of the conjugate increases, inhibition of binding goes from 0 to almost 100%, showing the effectiveness of the conjugate.

[2] = biological target: T1, ADP-modified human platelets (von Willebrand factor binding site) (Homo sapiens, UniProt P05106+P08514); experiment: Inhibition of 125I-labelled von Willebrand factor binding to ADP-treated human platelets; conditions: 10^8 human platelets/0.55 ml treated with 5 mM of ADP, 14 μg 125I-von Willebrand factor, FIG. 8
T1 construct: 10^8 human platelets/0.55 ml treated with 5 mM of ADP; endogenous in cells; host or cells: human platelets treated with ADP
Description: This Example illustrates that a peptide can be used to inhibit binding of von Willebrand factor to ADP-treated human platelets. FIG. 8 illustrates the level of inhibition of ^125 I-labelled von Willebrand factor or fibrinogen binding to ADP-modified human platelets by incubation with a synthetic dodecapeptide

[3] = biological target: T2, ristocetin-modified human platelets (von Willebrand factor binding site) (Homo sapiens, UniProt P07359); experiment: Inhibition of 125I-labelled von Willebrand factor binding to ristocetin-treated human platelets; conditions: human platelets treated with 0.6 mg/ml ristocetin, FIG. 8
T2 construct: von Willebrand factor to human platelets treated with 0.6 mg/ml ristocetin; endogenous in cells; host or cells: human platelets treated with ristocetin

[4] = test system: hemostatic plug formation; experiment: In vivo rabbit superior mesenteric artery perfusion, bleeding time; conditions: FIG. 11
Description: This Example illustrates an in vivo model of mesentric artery perfusion in a rabbit. The experimental model employed involved anesthesized white New Zealand rabbits, weighing about 2.0 kg, and fed standard diet. The right femoral artery was canulated for blood pressure measurement and blood sampling. A midline abdominal incision was made to exteriorize the small intestine, the mesentery was draped over a microscope table, and superfused continuously with saline at 37° C. […] Small arteries of 100-200 μm external diameter were cut one third across with a surgical blade at the junction of the mesentery with the intestine. The time in seconds was determined from incision until the bleeding was arrested by a spontaneously formed hemostatic plug. Infusions of selected agents tested for their effects on platelet activation were through the mesenteric cannula with a constant volume Harvard pump at a flow rate of 0.11 ml/min. Three animals were used for each dose unless otherwise indicated. Blood pressure, hematocrit, and platelet count were measured prior to and after bleeding time determinations.

[5] = test system: ADP-treated human platelets; experiment: Aggregation of ADP-treated human platelets washed free of fibrinogen, by conjugates (percent transmission); type: cell-based; conditions: FIG. 6 curves b and c
Excerpt: FIG. 5 illustrates the effectiveness of the divalent conjugate on promoting this inhibition reaction. Human platelets were washed free of fibrinogen and other binding proteins and then treated with ADP. […] The lower curve on FIG. 5 is a control of the identical conjugate with a peptide bound to the human serum albumin that is […] to the receptor site.
This Example illustrates that a polyvalent conjugate can also be manufactured and used in an aggregation reaction. […] Multiple copies of a different peptide, residues 397-411 of the gamma chain of fibrinogen bound to a cysteine residue were conjugated to a human serum albumin backbone. Curve a on FIG. 6 illustrates the aggregation of ADP-treated human platelets by this polyvalent conjugate. […] Curves b and c on FIG. 6 are controls illustrating the effectiveness of the conjugate as an artificial fibrinogen. In Curve b, the "model molecule" was first mixed with Fab fragments of rabbit antibody which had been made against the terminal portion of the gamma chain of human fibrinogen. […] This is evident from the almost flat response shown as Curve b on FIG. 6.
The alternate control, inhibiting the artificial fibrinogen reaction using the peptides themselves, is shown in Curve c. In this reaction, the platelets were mixed with unconjugated peptides and then the conjugate was used in attempt to aggregate the platelets.

T2 sequence (P07359 17-652): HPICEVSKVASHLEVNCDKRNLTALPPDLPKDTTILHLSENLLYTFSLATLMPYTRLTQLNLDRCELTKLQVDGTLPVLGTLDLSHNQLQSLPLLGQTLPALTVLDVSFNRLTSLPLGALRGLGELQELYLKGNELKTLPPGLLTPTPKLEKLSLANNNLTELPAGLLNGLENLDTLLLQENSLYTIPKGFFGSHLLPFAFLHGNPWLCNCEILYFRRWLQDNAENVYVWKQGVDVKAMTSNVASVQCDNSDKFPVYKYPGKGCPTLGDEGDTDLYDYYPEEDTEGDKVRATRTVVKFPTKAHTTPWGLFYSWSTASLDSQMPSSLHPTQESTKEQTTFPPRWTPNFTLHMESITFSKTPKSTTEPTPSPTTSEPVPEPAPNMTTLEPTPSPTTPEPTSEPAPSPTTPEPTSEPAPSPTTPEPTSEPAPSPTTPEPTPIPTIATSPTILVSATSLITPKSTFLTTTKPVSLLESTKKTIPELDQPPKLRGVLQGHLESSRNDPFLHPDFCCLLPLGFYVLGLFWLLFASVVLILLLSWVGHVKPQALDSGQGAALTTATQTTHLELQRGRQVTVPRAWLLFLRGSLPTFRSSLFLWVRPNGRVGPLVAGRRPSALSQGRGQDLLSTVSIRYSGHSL
T2 sequence (P13224 26-206 partner): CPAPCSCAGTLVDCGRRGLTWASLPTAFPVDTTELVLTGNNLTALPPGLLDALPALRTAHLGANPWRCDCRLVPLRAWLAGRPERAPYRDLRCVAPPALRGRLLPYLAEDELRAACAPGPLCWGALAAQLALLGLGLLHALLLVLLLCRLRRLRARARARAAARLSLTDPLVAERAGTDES
T2 sequence (P14770 17-177 partner): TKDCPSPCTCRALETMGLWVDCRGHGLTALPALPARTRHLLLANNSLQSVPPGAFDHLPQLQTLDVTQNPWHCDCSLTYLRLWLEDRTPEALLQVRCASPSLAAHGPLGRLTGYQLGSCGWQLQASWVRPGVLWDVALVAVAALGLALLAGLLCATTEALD
T2 sequence (P40197 17-560 partner): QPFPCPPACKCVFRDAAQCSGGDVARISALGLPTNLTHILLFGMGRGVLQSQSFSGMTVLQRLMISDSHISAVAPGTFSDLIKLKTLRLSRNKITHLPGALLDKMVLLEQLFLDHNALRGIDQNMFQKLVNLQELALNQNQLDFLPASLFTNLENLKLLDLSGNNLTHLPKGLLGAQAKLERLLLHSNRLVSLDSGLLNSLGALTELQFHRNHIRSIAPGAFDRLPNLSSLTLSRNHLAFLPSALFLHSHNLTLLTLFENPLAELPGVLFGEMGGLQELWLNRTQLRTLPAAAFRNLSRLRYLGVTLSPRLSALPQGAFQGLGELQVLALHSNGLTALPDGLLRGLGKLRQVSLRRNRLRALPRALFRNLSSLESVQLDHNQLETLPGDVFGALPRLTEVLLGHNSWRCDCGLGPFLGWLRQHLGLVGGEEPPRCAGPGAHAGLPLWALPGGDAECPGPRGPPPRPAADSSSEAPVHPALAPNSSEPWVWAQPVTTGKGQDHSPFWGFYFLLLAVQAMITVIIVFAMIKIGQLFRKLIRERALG
T1 sequence (P08514 32-887 limits assumed): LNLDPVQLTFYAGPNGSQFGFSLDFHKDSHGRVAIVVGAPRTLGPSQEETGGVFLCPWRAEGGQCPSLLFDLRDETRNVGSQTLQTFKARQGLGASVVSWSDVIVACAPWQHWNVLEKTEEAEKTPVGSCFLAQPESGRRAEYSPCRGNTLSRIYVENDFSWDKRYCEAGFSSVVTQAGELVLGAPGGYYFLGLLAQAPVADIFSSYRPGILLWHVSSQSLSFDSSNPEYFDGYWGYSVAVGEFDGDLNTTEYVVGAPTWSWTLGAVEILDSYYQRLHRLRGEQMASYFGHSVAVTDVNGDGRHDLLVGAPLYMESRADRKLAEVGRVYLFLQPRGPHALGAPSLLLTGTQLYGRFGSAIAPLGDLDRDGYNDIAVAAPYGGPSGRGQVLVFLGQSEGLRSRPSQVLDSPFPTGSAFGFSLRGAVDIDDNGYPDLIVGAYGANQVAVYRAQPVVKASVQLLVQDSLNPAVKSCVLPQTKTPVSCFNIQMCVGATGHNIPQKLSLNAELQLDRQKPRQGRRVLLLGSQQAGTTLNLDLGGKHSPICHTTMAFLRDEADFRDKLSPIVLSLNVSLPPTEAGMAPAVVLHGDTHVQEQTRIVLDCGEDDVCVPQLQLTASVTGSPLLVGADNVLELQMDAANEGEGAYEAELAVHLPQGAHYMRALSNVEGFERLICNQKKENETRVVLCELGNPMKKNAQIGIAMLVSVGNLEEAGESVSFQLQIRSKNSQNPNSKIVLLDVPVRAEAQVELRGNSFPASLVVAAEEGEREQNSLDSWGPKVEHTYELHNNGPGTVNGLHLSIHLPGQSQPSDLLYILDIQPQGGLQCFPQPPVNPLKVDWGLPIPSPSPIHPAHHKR
T1 sequence (P08514 891-1039 partner limits assumed): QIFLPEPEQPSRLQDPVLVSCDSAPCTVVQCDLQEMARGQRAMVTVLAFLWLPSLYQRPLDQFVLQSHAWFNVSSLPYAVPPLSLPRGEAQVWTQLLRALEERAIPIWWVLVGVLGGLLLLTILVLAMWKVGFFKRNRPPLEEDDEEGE
T1 sequence (P05106 27-788): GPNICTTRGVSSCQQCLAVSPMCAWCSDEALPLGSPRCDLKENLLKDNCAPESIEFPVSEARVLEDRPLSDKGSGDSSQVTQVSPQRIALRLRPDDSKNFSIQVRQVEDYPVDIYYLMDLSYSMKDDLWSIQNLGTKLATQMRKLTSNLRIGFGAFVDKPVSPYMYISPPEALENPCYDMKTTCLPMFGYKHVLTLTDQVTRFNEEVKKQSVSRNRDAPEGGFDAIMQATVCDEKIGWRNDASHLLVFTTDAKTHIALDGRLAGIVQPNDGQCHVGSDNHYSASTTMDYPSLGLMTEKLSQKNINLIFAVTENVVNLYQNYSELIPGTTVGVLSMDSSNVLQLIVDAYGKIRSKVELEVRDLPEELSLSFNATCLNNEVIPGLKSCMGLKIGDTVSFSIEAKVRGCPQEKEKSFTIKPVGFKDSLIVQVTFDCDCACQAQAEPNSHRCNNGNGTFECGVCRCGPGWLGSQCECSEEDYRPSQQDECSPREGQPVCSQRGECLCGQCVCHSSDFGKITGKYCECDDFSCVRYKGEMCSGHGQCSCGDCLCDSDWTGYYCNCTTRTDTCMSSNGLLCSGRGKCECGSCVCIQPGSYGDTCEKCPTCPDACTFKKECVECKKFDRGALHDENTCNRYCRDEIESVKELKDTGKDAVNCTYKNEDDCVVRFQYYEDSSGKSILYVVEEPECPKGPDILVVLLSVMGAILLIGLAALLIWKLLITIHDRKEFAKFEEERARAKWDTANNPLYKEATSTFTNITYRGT

## HHLGGAKQAGDV [dodecapeptide, H2 N-His-His-Leu-Gly-Gly-Ala-Lys-Gln-Ala-Gly-Asp-Val-C OOH]
[1]
  inhibition of 125I-labelled fibrinogen binding: substantial binding inhibition
[2]
  inhibition of 125I-labelled von Willebrand factor binding: substantial binding inhibition
[3]
  inhibition of 125I-labelled von Willebrand factor binding: does not inhibit

## HHLGGAKQAGDV [inhibitory peptide]
[4]; infusion through the mesenteric cannula
  bleeding time relative to its original time (diluent infusion): more than double its original time
[4]; said to show clearance of the peptide
  time to resume original bleeding time after peptide infusion is replaced by diluent: approximately 20 minutes

## unconjugated peptides: the peptides of the polyvalent conjugate themselves, unconjugated (gamma chain residues 397-411 with cysteine)
[5]
  inhibition of platelet aggregation induced by the polyvalent conjugate (artificial fibrinogen): aggregation reaction by the artificial fibrinogen conjugate is inhibited
